# Assay results reported in publication PMC6393351, “Linking Terpene Synthases to Sesquiterpene Metabolism in Grapevine Flowers” (Frontiers in Plant Science, 2019).
# Residue numbers refer to the chain shown, from its start.
# What was measured:
# Experiment in all cases: in vivo yeast expression, HS-SPME-GC-MS of volatiles
# Format in all cases: cell-based
# Details in all cases: endogenous FPP of engineered yeast GT051, not added; pH 6, 5 mM Mg2+, 30 °C, 16 h
# VvivSBTPS02 = biological target: T1, VvivSBTPS02 (Vitis vinifera, UniProt A0A482AJK8)
# T1 construct: full-length ORF from cDNA; expressed in yeast GT051 under GAL1 promoter
# T1 sequence (A0A482AJK8 1-555): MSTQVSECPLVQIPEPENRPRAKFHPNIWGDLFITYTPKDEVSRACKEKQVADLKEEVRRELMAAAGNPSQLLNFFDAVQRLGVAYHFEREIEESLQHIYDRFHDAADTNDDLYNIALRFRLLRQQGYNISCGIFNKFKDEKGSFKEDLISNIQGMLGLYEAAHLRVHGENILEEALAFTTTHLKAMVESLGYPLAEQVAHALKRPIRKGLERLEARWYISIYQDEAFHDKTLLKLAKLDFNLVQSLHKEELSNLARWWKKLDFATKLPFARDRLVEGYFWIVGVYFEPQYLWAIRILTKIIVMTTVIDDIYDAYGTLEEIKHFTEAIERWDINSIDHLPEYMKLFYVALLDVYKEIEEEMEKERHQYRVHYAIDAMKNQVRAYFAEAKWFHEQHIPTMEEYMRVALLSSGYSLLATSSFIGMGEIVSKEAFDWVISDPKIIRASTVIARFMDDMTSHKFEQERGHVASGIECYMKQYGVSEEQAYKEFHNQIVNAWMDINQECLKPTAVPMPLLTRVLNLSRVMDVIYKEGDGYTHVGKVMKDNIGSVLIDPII
# VvivSBTPS01 = biological target: T2, VvivSBTPS01 (Vitis vinifera, UniProt A0A482ALZ4)
# T2 construct: full-length ORF from cDNA; expressed in yeast GT051 under GAL1 promoter
# T2 sequence (A0A482ALZ4 1-555): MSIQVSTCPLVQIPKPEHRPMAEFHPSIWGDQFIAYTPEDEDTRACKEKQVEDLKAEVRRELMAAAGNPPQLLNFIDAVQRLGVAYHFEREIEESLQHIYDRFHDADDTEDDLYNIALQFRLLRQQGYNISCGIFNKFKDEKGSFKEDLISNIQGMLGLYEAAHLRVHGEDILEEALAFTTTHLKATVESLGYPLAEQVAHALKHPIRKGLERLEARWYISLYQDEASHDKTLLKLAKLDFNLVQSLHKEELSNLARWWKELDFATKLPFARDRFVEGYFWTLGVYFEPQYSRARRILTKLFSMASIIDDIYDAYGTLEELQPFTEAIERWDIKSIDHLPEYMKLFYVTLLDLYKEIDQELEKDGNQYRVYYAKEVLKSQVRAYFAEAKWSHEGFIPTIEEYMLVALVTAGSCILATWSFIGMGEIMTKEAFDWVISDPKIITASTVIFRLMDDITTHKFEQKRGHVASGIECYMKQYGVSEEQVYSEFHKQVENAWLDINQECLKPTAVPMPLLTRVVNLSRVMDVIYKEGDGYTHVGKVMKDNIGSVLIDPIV
# VvivMATPS10 = biological target: T3, VvivMATPS10 (Vitis vinifera, UniProt A0A482AL43)
# T3 construct: full-length ORF from flower cDNA; yeast GT051 (GAL1 promoter); also transient expression in N. benthamiana (pEAQ-HT-DEST1)
# T3 sequence (A0A482AL43 1-560): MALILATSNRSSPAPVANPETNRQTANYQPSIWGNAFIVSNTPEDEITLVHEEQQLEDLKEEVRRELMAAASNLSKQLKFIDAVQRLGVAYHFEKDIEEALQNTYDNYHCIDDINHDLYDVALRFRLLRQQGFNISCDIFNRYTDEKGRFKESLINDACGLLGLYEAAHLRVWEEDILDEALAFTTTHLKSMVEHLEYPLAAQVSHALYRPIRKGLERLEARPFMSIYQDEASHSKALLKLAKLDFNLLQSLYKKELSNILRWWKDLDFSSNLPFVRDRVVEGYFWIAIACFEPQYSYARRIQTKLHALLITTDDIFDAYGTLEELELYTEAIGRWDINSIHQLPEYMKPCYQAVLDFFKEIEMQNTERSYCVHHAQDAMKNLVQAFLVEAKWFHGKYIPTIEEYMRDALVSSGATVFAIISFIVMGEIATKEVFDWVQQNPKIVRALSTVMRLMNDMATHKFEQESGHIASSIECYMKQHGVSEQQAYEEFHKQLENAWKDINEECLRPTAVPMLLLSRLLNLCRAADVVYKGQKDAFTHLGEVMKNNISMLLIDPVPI
# VvivSHTPS27 = biological target: T4, VvivSHTPS27 (Vitis vinifera, UniProt A0A482AKK8)
# T4 construct: full-length ORF from cDNA; expressed in yeast GT051 under GAL1 promoter
# T4 sequence (A0A482AKK8 1-557): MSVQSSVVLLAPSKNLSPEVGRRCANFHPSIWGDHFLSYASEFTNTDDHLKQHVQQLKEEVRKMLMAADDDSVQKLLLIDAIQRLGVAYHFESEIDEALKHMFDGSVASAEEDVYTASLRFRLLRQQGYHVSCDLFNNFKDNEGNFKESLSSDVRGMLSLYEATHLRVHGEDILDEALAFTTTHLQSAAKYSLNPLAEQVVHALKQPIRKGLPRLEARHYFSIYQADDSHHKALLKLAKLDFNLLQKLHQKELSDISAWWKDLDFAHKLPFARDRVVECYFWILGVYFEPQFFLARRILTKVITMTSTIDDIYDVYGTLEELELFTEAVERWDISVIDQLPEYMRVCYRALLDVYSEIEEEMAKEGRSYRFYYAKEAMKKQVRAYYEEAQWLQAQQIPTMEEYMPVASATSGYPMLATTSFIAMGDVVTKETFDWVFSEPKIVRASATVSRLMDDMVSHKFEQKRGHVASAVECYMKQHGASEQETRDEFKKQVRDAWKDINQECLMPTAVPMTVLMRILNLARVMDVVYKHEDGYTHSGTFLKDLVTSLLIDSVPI
# VvivMATPS28 = biological target: T5, VvivMATPS28 (Vitis vinifera, UniProt A0A482AJV9)
# T5 construct: full-length ORF from cDNA; expressed in yeast GT051 under GAL1 promoter
# T5 sequence (A0A482AJV9 1-558): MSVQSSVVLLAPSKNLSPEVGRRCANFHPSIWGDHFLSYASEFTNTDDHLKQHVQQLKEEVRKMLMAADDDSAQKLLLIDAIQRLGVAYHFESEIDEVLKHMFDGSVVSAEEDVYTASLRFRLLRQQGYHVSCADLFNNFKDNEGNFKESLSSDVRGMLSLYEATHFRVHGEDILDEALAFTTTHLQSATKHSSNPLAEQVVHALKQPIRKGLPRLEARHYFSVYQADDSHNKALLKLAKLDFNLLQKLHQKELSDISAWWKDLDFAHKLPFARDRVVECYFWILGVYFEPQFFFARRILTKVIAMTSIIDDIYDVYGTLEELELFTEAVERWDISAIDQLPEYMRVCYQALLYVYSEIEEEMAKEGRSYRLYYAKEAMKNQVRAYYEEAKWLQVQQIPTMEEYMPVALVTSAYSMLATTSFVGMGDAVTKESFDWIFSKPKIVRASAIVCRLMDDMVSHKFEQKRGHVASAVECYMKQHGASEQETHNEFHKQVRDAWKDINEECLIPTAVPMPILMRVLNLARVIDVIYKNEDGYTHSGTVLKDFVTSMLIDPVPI
# VvivMATPS01 = biological target: T6, VvivMATPS01 (Vitis vinifera, UniProt A0A482ANT9)
# T6 construct: full-length ORF from cDNA; expressed in yeast GT051 under GAL1 promoter
# T6 sequence (A0A482ANT9 1-555): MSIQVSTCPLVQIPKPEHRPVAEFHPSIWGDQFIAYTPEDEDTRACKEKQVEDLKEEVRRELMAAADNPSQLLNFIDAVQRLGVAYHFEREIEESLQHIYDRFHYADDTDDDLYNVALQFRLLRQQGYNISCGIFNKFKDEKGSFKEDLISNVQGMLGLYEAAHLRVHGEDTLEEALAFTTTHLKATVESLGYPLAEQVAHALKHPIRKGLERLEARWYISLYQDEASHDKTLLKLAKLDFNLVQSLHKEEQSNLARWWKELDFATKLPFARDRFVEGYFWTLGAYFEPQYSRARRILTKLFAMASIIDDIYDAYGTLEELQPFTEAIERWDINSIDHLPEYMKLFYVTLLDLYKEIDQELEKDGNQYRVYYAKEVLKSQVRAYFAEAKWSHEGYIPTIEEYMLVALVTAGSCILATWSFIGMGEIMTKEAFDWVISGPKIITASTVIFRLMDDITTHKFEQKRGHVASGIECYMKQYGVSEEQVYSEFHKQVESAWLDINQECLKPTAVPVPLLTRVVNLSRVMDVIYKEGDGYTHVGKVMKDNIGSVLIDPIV
# VvivMATPS27 = biological target: T7, VvivMATPS27 (Vitis vinifera, UniProt E5GAF4)
# T7 construct: full-length ORF from cDNA; expressed in yeast GT051 under GAL1 promoter
# T7 sequence (E5GAF4 1-557): T4 sequence (A0A482AKK8 1-557) with F27Y
smiles,measurement,setting,value
CC(C)=CCC/C(C)=C/CC/C(C)=C/COP(=O)(O)OP(=O)(O)O [FPP],"in vivo yeast expression, HS-SPME-GC-MS of volatiles",VvivSBTPS02,increase the metabolic flux for the FPP terpene precursor
same,"in vivo yeast expression, HS-SPME-GC-MS of volatiles",VvivSBTPS01,increase the metabolic flux for the FPP terpene precursor
same,"in vivo yeast expression, HS-SPME-GC-MS of volatiles",VvivMATPS10,increase the metabolic flux for the FPP terpene precursor
same,"in vivo yeast expression, HS-SPME-GC-MS of volatiles",VvivSHTPS27,increase the metabolic flux for the FPP terpene precursor
same,"in vivo yeast expression, HS-SPME-GC-MS of volatiles",VvivMATPS28,increase the metabolic flux for the FPP terpene precursor
same,"in vivo yeast expression, HS-SPME-GC-MS of volatiles",VvivMATPS01,increase the metabolic flux for the FPP terpene precursor
same,"in vivo yeast expression, HS-SPME-GC-MS of volatiles",VvivMATPS27,increase the metabolic flux for the FPP terpene precursor
